{
  "source": "paper PMC4031649",
  "about": "(Cell reports, 2014)",
  "target": "T1, GGCT (Homo sapiens, UniProt O75223)",
  "T1 sequence (O75223 1-188)": "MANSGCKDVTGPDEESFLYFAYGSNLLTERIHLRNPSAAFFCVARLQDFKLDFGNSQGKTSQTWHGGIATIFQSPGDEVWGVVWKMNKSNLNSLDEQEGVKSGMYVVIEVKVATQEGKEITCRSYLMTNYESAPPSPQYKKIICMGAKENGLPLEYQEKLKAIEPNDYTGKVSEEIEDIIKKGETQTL",
  "assay": "thin layer chromatography, ninhydrin",
  "assay_type": "biochemical",
  "conditions": "glycine release",
  "data": [
    {"compound": "N[C@@H](CCC(=O)NCC(=O)O)C(=O)O", "note": "[γ-glutamyl-glycine]", "values": [
      {"measurement": "thin layer chromatography, ninhydrin", "value": "Both GGCT and Botch release glycine by cleavage of γ-glutamyl-glycine"}
    ]}
  ]
}
